Assay results taken from PMC8277129, “Bioconcentration of Several Series of Cationic Surfactants in Rainbow Trout” (Environmental Science & Technology, 2021).
Several values for one entry are separate records, joined by “and”; a condition that tells them apart may be missing. Equal values may be shown once. Read-outs that look alike come from different tables or passages of the source. Marks after values point to notes of the source that are not given here.

Tests used:
[1] = set-up: method as in Perrin 1965, SRC, REACH, Perrin 1972, Hall 1957; conditions: ref Perrin 1965, SRC, REACH, Perrin 1972, Hall 1957, cited from earlier work; for pKa, experimental reference data: 25 °C; for pKa used (selected value): selected per amine type, weighted from simulated and experimental analogue data
[2] = set-up: method as in REACH dossier; conditions: aqueous; ref REACH dossier; cited from earlier work
[3] = tested on: juvenile rainbow trout (Oncorhynchus mykiss); assay: Bioconcentration (BCF) experiment based on OECD 305, aqueous exposure to surfactant mixtures; assay type: in vivo; conditions: for uptake rate constant (kU): 14 d exposure, 28 d depuration; for uptake rate constant (kU) / BCF (kU/kT) / measured total elimination rate constant (kT): whole fish; for factor by which BCF is lower for the QAC than for the tertiary amine with the same chain length: pH 7.6, Q10 vs T10, Q14 vs T14
Protocol: (§1) Juvenile rainbow trout were purchased from EM lax in Västervik, Sweden, and held in the aquaria facility for one month prior to starting the experiment on August 28, 2018. Ethical approval for the experiments was obtained from Stockholm’s djurförsöksetiska nämnd (decision 9967–2017). The experiment was conducted in six 350 L fiberglass aquaria with a water renewal rate of 1.5 L min^–1 corresponding to a turnover time of […]. The water temperature and the air temperature in the aquaria room were 10 °C. The lighting was dim and programmed on a 12 h light/12 h dark cycle.
(§2) Three BCF experiments were conducted, one each for MIX1 and MIX2 at pH ∼7.6 (denoted MIX1 and MIX2 in the following), and one for MIX1 at pH ∼6.2 (MIX1pH). Each experiment consisted of a 14 d exposure phase and a 28 d depuration phase. There were also two control aquaria where unexposed fish were kept, one at pH 7.6 and one at pH 6.2. For the pH 6.2 aquaria, a 20% v:v formic acid solution was pumped into a premixing basin where it was mixed with the inflowing water before entering the aquarium. pH sensors monitored pH in the premixing basin and the aquarium. The pH for the MIX1 and MIX2 experiments was governed by the pH of the water supply. Water samples were collected at 8 time points during each experiment for the determination of pH and alkalinity. Water samples were collected daily during the exposure phase for determination of total organic carbon (TOC), which was measured with NDIR detection after acidification, purging and high-temperature catalytic combustion (Shimadzu TOC-L).
(§3) For the exposure phase, a methanol solution of the test chemical mixture was infused continuously at 4.0 μL min^–1 into the water inflow of the aquarium using a syringe pump. The target concentrations of the chemicals in water ranged from 2.5 to 100 μg L^–1 (Table 1). They were selected to be as low as possible to minimize the risk of toxic effects while still being high enough to enable collection of high-quality data, building on the results of the tissue distribution experiment.[32] The syringe pump was started in an aquarium containing no fish. After 16 h to allow the concentrations to stabilize, ∼80 rainbow trout were transferred to the aquarium. Over the following 14 d water samples were collected and fish were sacrificed according to the schedule in Table S5. The remaining fish were then transferred to a second aquarium that received water without chemical addition. Over the following 28 d further water samples were collected and fish were sacrificed (Table S5).
(§4) At each fish sampling, 4–6 fish were sacrificed. Fish were also sampled periodically from the control aquaria. Following stunning and severance of the spinal cord, the fish were placed in a polyethylene bag, weighed, and immediately frozen at −20 °C. The median fish weight at sacrifice was 10.94 g, with a 25th and 75th percentile of 8.43 and 13.58 g, respectively.
(§5) Three fish from each time point were prioritized for analysis based on proximity to the median fish weight. Each fish was semithawed, cut into 3–4 pieces, and homogenized with an Ultra-Turrax device. 150 mg of the homogenate was transferred to a preweighed 13 mL polypropylene tube, centrifuged to a pellet, and weighed. 50 μL of methanol was added and the prepared aliquot was frozen. For extraction internal standard solution (isotope labeled standards of Q10 (D21), Q14 (D29), and P16 (D33)), 3 mL of methanol and 3 steel balls (3.2 mm diameter) were added to the prepared aliquot. This mixture was mixed in a bullet blender for 1 min, and then placed in an ultrasound bath at 50 °C for 60 min. Following centrifugation, the supernatant was decanted and the extraction was repeated. The extracts were combined and a portion corresponding to 25–50 mg homogenate was cleaned up on a weak cationic exchange SPE column (WCX, 60 mg) as described elsewhere.[32] […]

[4] = ref Timmer and Droge (2017); cited from earlier work
gills of rainbow trout = assay: Mechanistic one-box mass balance model of gill uptake and elimination; conditions: for predicted gill elimination rate constant eq 1 (k2): from measured kU and modeled αW, αB, DFW
Text: To gain more mechanistic insight into the results, we formulated a simple one-box mass balance model of chemical bioconcentration in fish that considered diffusive uptake and elimination across the gills as well as biotransformation.[33] The flow of water across the gills and the flow of blood through the gills were modeled as perfusion limited resistances that constrain gill uptake and elimination. […] Consequently, these resistances are unknowns. Ion trapping effects caused by differences in pH between water at the gill surface and blood in the gills are considered, drawing on previous work on the uptake and elimination of ionizable organic chemicals across the gills of rainbow trout.[22],[23] Partitioning of the chemical from the dissolved phase into blood and into whole fish was calculated as the product of the membrane lipid–water distribution ratio (DMLW,T, including partitioning of both the neutral and the charged forms) and the fraction of membrane lipid in blood and whole fish. A detailed description of the model is provided in the SI (Text S3).
The contribution of the water perfusion and blood perfusion resistances were compared with the overall resistance for transport across the gills from water to blood (RW→B), which was calculated from the measured kU according to equation S4.3. […] For all of the other chemicals the blood resistance is insignificant compared to the overall resistance.
The rate constant for elimination across the gills, k2, can be defined as follows: [drawing 1] 1 where αB and αW are the neutral fractions of the chemical in the blood and in the water at the gill surface, respectively, and DFW is the fish-water distribution ratio of the chemical at the pH of blood (8.1) (see Text S3). Using the measured kU and the values of αW, αB, and DFW estimated for the model, k2 was calculated (Table 2).

[5] = Bioconcentration (BCF) experiment based on OECD 305, aqueous exposure to surfactant mixtures; assay type: in vivo, Oncorhynchus mykiss; conditions: whole fish, read-out: measured total elimination rate constant (kT) (converted)
Protocol: as §1, §2, §3, §4, §5

CCCN(C)C [N,N-dimethylpropylamine, reference compound]
pKa, experimental reference data [1]: 9.99

CCCCCCCCN [octan-1-amine]
SURFACE TENSION [2]: 44.2 mN/m

CCCCCCCC/C=C/CCCCCCCCN(CCO)CCO [2-[(2-hydroxyethyl)[(9E)-octadec-9-en-1-yl]amino]ethan-1-ol]
SURFACE TENSION [2]: 27 mN/m

CCCCCCCCCCCCCC[N+](C)(C)C [Q14, N,N,N-trimethyl-1-tetradecylammonium]
initial rapid sorption as share of the cumulative uptake over 14 d ([3]; 14 d exposure phase): < 5% | factor by which BCF is lower at pH 6.2 than at pH 7.6 ([3]; MIX1 vs MIX1pH): no influence of pH on BCF | factor by which kU is lower at pH 6.2 than at pH 7.6 ([3]; MIX1 vs MIX1pH): the same | uptake rate constant (kU) ([3]; pH 6.2 (MIX1pH)): 0.121 L kg^–1 h^–1 | BCF (kU/kT) ([3]; pH 6.2 (MIX1pH)): 55 L kg^–1 | measured total elimination rate constant (kT) ([3]; pH 6.2 (MIX1pH)): 0.0022 h^–1 | uptake rate constant (kU) ([3]; pH 7.6 (MIX1, MIX2), 10 °C): 0.104 L kg^–1 h^–1 | BCF (kU/kT) ([3]; pH 7.6 (MIX1, MIX2)): 51 L kg^–1 | measured total elimination rate constant (kT) ([3]; pH 7.6 (MIX1, MIX2)): 0.0020 h^–1 | factor by which BCF is lower for the QAC than for the tertiary amine with the same chain length [3]: 160 | Log DMLW,C (membrane-water partition coefficient of the charged form) [4]: 5.46

CCCCNC [N-methylbutylamine, reference compound]
pKa, experimental reference data [1]: 10.9

CCCCNCCCC [N-butylbutan-1-amine]
SURFACE TENSION [2]: 50.6 mN/m

CCCCCCCCCCCCCCCCCCN(C)C [dimethyl(octadecyl)amine]
SURFACE TENSION [2]: 32.2 mN/m

CCCCCCCCCCN(C)C [T10, N,N-dimethyldecylamine]
factor by which BCF is lower at pH 6.2 than at pH 7.6 ([3]; MIX1 vs MIX1pH): 17 | factor by which kT is greater at pH 6.2 than at pH 7.6 ([3]; MIX1 vs MIX1pH): 1.7 | factor by which kU is lower at pH 6.2 than at pH 7.6 ([3]; MIX1 vs MIX1pH): 10 | uptake rate constant (kU) ([3]; pH 6.2 (MIX1pH)): 1.02 L kg^–1 h^–1 | BCF (kU/kT) ([3]; pH 6.2 (MIX1pH)): 7.9 L kg^–1 | measured total elimination rate constant (kT) ([3]; pH 6.2 (MIX1pH)): 0.129 h^–1 | uptake rate constant (kU) ([3]; pH 7.6 (MIX1, MIX2), 10 °C): 9.9 L kg^–1 h^–1 | BCF (kU/kT) ([3]; pH 7.6 (MIX1, MIX2)): 134 L kg^–1 | measured total elimination rate constant (kT) ([3]; pH 7.6 (MIX1, MIX2)): 0.074 h^–1 | k2/kT (gills of rainbow trout; pH 6.2 (MIX1pH)): 4.1 | predicted gill elimination rate constant eq 1 (k2) (gills of rainbow trout; pH 6.2 (MIX1pH)): 0.53 h^–1 | factor by which k2 exceeded kT (gills of rainbow trout; pH 6.2 experiment): 4 | factor by which k2 exceeded kT (gills of rainbow trout; pH 7.6): ~5 | k2/kT (gills of rainbow trout; pH 7.6 (MIX1, MIX2)): 5.0 | predicted gill elimination rate constant eq 1 (k2) (gills of rainbow trout; pH 7.6 (MIX1, MIX2)): 0.37 h^–1 | Log DMLW,C (membrane-water partition coefficient of the charged form) [4]: 3.65 | pKa used (selected value) [1]: C10N(CH3)2 (10.0)

CCCCCCN [hexylamine, reference compound]
pKa, experimental reference data [1]: 10.64

CCCCCCCCCCCCCC[N+](C)(C)CCCCCCCCCCCCCC.[Cl-] [N,N-dimethyl-N-tetradecyltetradecan-1-aminium chloride]
SURFACE TENSION [2]: 28 mN/m

CCCCCCCCCCCCN [P12, Dodecylamine]
k el ([5]; pH 6.2 (MIX1pH)): 1.42e-05 s⁻¹ | k el ([5]; pH 7.6 (MIX1, MIX2)): 2.25e-06 s⁻¹ | factor by which BCF is lower at pH 6.2 than at pH 7.6 ([3]; MIX1 vs MIX1pH): 34 | uptake rate constant (kU) ([3]; pH 6.2 (MIX1pH)): 0.36 L kg^–1 h^–1 | BCF (kU/kT) ([3]; pH 6.2 (MIX1pH)): 7.1 L kg^–1 | uptake rate constant (kU) ([3]; pH 7.6 (MIX1, MIX2), 10 °C): 2.0 L kg^–1 h^–1 | BCF (kU/kT) ([3]; pH 7.6 (MIX1, MIX2)): 250 L kg^–1 | factor by which k2 was less than kT (gills of rainbow trout): ~10 | pH dependency of k2 (factor between pH 7.6 and pH 6.2) (gills of rainbow trout; MIX1 vs MIX1pH): 2.5 | Uptake resistance (gills of rainbow trout; lower pH (6.2), value printed in Figure 3): 744 h m^-1 | k2/kT (gills of rainbow trout; pH 6.2 (MIX1pH)): 0.04 | predicted gill elimination rate constant eq 1 (k2) (gills of rainbow trout; pH 6.2 (MIX1pH)): 0.0022 h^–1 | k2/kT (gills of rainbow trout; pH 7.6 (MIX1, MIX2)): 0.11 | predicted gill elimination rate constant eq 1 (k2) (gills of rainbow trout; pH 7.6 (MIX1, MIX2)): 0.0009 h^–1 | Log DMLW,C (membrane-water partition coefficient of the charged form) [4]: 5.58

CCCCCCCCN [octylamine, reference compound]
pKa, experimental reference data [1]: 10.7 and 10.6

CCCCCCCCCCCCCCCCCCN [octadecan-1-amine]
SURFACE TENSION [2]: 23.9 mN/m

CCCCCCCCCCCCN [dodecan-1-amine]
SURFACE TENSION [2]: 23.1 mN/m

CCCCCCCCCN [P9, Nonylamine]
factor by which BCF is lower at pH 6.2 than at pH 7.6 ([3]; MIX1 vs MIX1pH): 22 | BCF (kU/kT) ([3]; pH 6.2 (MIX1pH)): 0.1 ^b L kg^–1 | BCF (kU/kT) ([3]; pH 7.6 (MIX1, MIX2)): 2.2 L kg^–1 | Log DMLW,C (membrane-water partition coefficient of the charged form) [4]: 3.72 | pKa used (selected value) [1]: C9NH2 (10.6)

CCCCCCCCCCCCCCCCN(C)C [N,N-dimethylhexadecan-1-amine]
SURFACE TENSION [2]: 30.5 mN/m

CCCCCCCCCC[N+](C)(C)CCCCCCCCCC.CCCCCCCCCC[N+](C)(C)CCCCCCCCCC.O=C([O-])CCCCC(=O)[O-] [1-Decanaminium,N-decyl-N,N-dimethyl-, hexanedioate(2:1)]
SURFACE TENSION [2]: 32.3 mN/m

CCCCCCCCCC[N+](C)(C)C [Q10, N,N,N-trimethyl-1-decylammonium]
BCF (kU/kT) ([3]; pH 7.6 (MIX1, MIX2)): <0.2 ^c L kg^–1 | factor by which BCF is lower for the QAC than for the tertiary amine with the same chain length [3]: > 670 | Log DMLW,C (membrane-water partition coefficient of the charged form) [4]: 3.34

CCCCCCCCCCCCCC[N+](C)(C)Cc1ccccc1.[Cl-] [benzyldimethyltetradecylazanium chloride]
SURFACE TENSION [2]: 34.5 mN/m

CCCCN(C)C [N,N-dimethylbutylamine, reference compound]
pKa, experimental reference data [1]: 10.02
